These compounds were tested against Human recombinant carboxy-terminal his-tagged LDHA (amino acids 2-332) (Homo sapiens, UniProt P00338) (assay: LDHA enzyme inhibition assay (NADH fluorescence)). Conditions: LDHA IC50 (μM), 1 nM LDHA, NADH and pyruvate, stereochemistry of tested sample given.
In the case of `O=C1CC(c2ccc(N3CCCCC3)cc2)(c2ccsc2)NC(=O)C1Sc1cc(O)ccc1Cl` (centres unmarked) [Example 43], the IC50 is reported as 0.017 µM. `O=C1CC(c2ccc(N3CC4(COC4)C3)cc2)(c2ccsc2)NC(=O)C1Sc1ccccc1Cl` (centres unmarked) [Example 45, 3-(2-chlorophenyl) sulfanyl-6-[4-(2-oxa-6-azaspiro[3.3]heptan-6-yl)phenyl]-6-(3-thienyl)piperidine-2,4-dione] gave an IC50 of 0.069 µM. With `O=C1CC(c2ccsc2)(c2cccc(Oc3ccccn3)n2)NC(=O)C1Sc1ccccc1Cl` (centres unmarked) [Example 46, 3-(2-chlorophenyl) sulfanyl-6-[6-(2-pyridyloxy)-2-pyridyl]-6-(3-thienyl)piperidine-2,4-dione] the IC50 was 0.005 µM. Compound `O=C1CC(c2ccsc2)(c2cccc(OC3CCCC3)n2)NC(=O)C1Sc1ccccc1Cl` (centres unmarked) [Example 48, 3-((2-chlorophenyi)lliio)-6-(6-(cyclopentyloxy)pyridin-2-yl)-6-(thiophen-3-yl)piperidine-2 .4-dione] has an IC50 of 0.052 µM. For `O=C1CC(c2ccsc2)(c2cccc(OC3CCOC3)n2)NC(=O)C1Sc1ccccc1Cl` (centres unmarked) [Example 49, 3-((2-chlorophenyl)thio)-6-(6-((tetrahydrofuran-3-yl)oxy)pyridin-2-yl)-6-(thiophen-3-yl) piperidine-2,4-dione], the IC50 was 0.025 µM. `O=C1CC(c2ccsc2)(c2cccc(Oc3ccc(F)cc3F)n2)NC(=O)C1Sc1ccccc1Cl` (centres unmarked) [Example 50, 3-(2-chlorophenyl) sulfanyl-6-[6-(2,4-difluorophenoxy)-2-pyridyl]-6-(3-thienyl)piperidine-2,4-dione] was tested, and the IC50 was 0.022 µM. With `Cc1cc(Oc2cccc(C3(c4ccsc4)CC(=O)C(Sc4ccccc4Cl)C(=O)N3)n2)ccc1F` (centres unmarked) [Example 51, 5-((2-chlorophenyl)thio)-6′-(4-fluoro-3-methyl-phenoxy)-4-hydroxy-2-(thiophen-3-yl)-2,3-dihydro-[2,2′-bipyridin]-6(1H)-one] the IC50 was 0.149 µM. `O=C1CC(c2ccsc2)(c2cccc(Oc3ccccc3F)n2)NC(=O)C1Sc1ccccc1Cl` (centres unmarked) [Example 52, 3-(2-chlorophenyl)sulfanyl-6-[6-(2-fluorophenoxy)-2-pyridyl]-6-(3-thienyl)piperidine-2,4-dione] showed an IC50 of 0.045 µM. For `O=C1CC(c2ccsc2)(c2cccc(Oc3cccc(F)c3F)n2)NC(=O)C1Sc1ccccc1Cl` (centres unmarked) [Example 53, 3-(2-chlorophenyl)sulfanyl-6-[6-(2,3-difluoro-phenoxy)-2-pyridyl]-6-(3-thienyl)piperidine-2,4-dione], the IC50 was 0.011 µM. For `O=C1CC(c2ccsc2)(c2cccc(Oc3cncnc3)n2)NC(=O)C1Sc1ccccc1Cl` (centres unmarked) [Example 54, 3-(2-chlorophenyl)sulfanyl-6-(6-pyrimidin-5-yloxy-2-pyridyl)-6-(3-thienyl)piperidine-2,4-dione], the IC50 was 0.201 µM. `O=C1CC(c2ccsc2)(c2cccc(Oc3ccc(Cl)cc3)n2)NC(=O)C1Sc1ccccc1Cl` (centres unmarked) [Example 58, 6′-(4-chlorophenoxy)-5-((2-chlorophenyl)thio)-4-hydroxy-2-(thiophen-3-yl)-2,3-dihydro-[2,2′-bipyridin]-6(1H)-one] was tested, and the IC50 was 0.01 µM. Work on `COc1ccc(Oc2cccc(C3(c4ccsc4)CC(=O)C(Sc4ccccc4Cl)C(=O)N3)n2)cc1` (centres unmarked) [Example 59, 3-(2-chlorophenyl)sulfanyl-6-[6-(4-methoxyphenoxy)-2-pyridyl]-6-(3-thienyl) piperidine-2,4-dione] yielded an IC50 of 0.056 µM. Work on `O=C1CC(c2ccsc2)(c2cccc(Oc3ccc4c(c3)CCC4)n2)NC(=O)C1Sc1ccccc1Cl` (centres unmarked) [Example 60, 5-((2-chlorophenyl)thio)-6′-((2,3-dihydro-1H-inden-5-yl)oxy)-4-hydroxy-2-(thiophen-3-yl)-2,3-dihydro-[2,2′-bipyridin]-6(1H)-one] yielded an IC50 of 0.009 µM. Work on `COc1ccccc1Oc1cccc(C2(c3ccsc3)CC(=O)C(Sc3ccccc3Cl)C(=O)N2)n1` (centres unmarked) [Example 61, 3-(2-chlorophenyl)sulfanyl-6-[6-(2-methoxyphenoxy)-2-pyridyl]-6-(3-thienyl) piperidine-2,4-dione] yielded an IC50 of 0.02 µM. With `O=C1CC(c2ccsc2)(c2cccc(Oc3cc(F)cc(F)c3)n2)NC(=O)C1Sc1ccccc1Cl` (centres unmarked) [Example 62, 3-(2-chlorophenyl)sulfanyl-6-[6-(3,5-difluoro-phenoxy)-2-pyridyl]-6-(3-thienyl)piperidine-2,4-dione] the IC50 was 0.036 µM. With `O=C1CC(c2ccsc2)(c2cccc(Oc3cccc(Cl)c3)n2)NC(=O)C1Sc1ccccc1Cl` (centres unmarked) [Example 63, 6′-(3-chlorophenoxy)-5-((2-chlorophenyl)thio)-4-hydroxy-2-(thiophen-3-yl)-2,3-dihydro-[2,2′-bipyridin]-6(1H)-one] the IC50 was 0.037 µM. `COc1cccc(Oc2cccc(C3(c4ccsc4)CC(=O)C(Sc4ccccc4Cl)C(=O)N3)n2)c1` (centres unmarked) [Example 64, 3-(2-chlorophenyl)sulfanyl-6-[6-(3-methoxyphenoxy)-2-pyridyl]-6-(3-thienyl) piperidine-2,4-dione] showed an IC50 of 0.126 µM. `CCC1CN(c2ccc(C3(c4ccsc4)CC(=O)C(Sc4ccccc4Cl)C(=O)N3)cc2)CCO1` (centres unmarked) [Example 66, 3-(2-chlorophenyl)sulfanyl-6-[4-(2-ethylmorpholin-4-yl)phenyl]-6-(3-thienyl) piperidine-2,4-dione] showed an IC50 of 0.089 µM. With `O=C1CC(c2ccsc2)(c2cccc(OCc3ccccc3)n2)NC(=O)C1Sc1ccccc1Cl` (centres unmarked) [Example 68, 6′-(benzyloxy)-5-((2-chlorophenyl)thio)-4-hydroxy-2-(thiophen-3-yl)-2,3-dihydro-[2,2′-bipyridin]-6(1H)-one] the IC50 was 0.008 µM. `O=C1CC(c2ccsc2)(c2cccc(Oc3cccnc3)n2)NC(=O)C1Sc1ccccc1Cl` (centres unmarked) [Example 71, 3-((2-chlorophenyl)thio)-6-(6-(pyridin-3-yloxy)pyridin-2-yl)-6-(thiophen-3-yl)piperidine-2,4-dione] showed an IC50 of 0.056 µM. With `O=C1CC(c2ccc(N3CCC(F)(F)CC3)cc2)(c2ccsc2)NC(=O)C1Sc1ccccc1Cl` (centres unmarked) [Example 72, 3-(2-chlorophenyl)sulfanyl-6-[4-(4,4-difluoro-1-piperidyl)phenyl]-6-(3-thienyl)piperidine-2,4-dione] the IC50 was 0.025 µM. For `CC(C)Oc1nc(C2(c3ccsc3)CC(=O)C(Sc3ccccc3Cl)C(=O)N2)ccc1N1CCOCC1` (centres unmarked) [Example 73, 3-((2-chlorophenyl)thio)-6-(6-isopropoxy-5-morpholinopyridin-2-yl)-6-(thiophen-3-yl) piperidine-2,4-dione], the IC50 was 0.111 µM. `CCOc1cccc(C2(c3ccsc3)CC(=O)C(Sc3ccccc3Cl)C(=O)N2)n1` (centres unmarked) [Example 74, 3-(2-chlorophenyl)sulfanyl-6-(6-ethoxy-2-pyridyl)-6-(3-thienyl)piperidine-2,4-dione] was tested, and the IC50 was 0.014 µM. `CC(C)COc1cccc(C2(c3ccsc3)CC(=O)C(Sc3ccccc3Cl)C(=O)N2)n1` (centres unmarked) [Example 75, 3-(2-chlorophenyl)sulfanyl-6-(6-isobutoxy-2-pyridyl)-6-(3-thienyl)piperidine-2,4-dione] gave an IC50 of 0.07 µM. For `O=C1CC(c2ccsc2)(c2cccc(Oc3ccc(OC(F)(F)F)cc3)n2)NC(=O)C1Sc1ccccc1Cl` (centres unmarked) [Example 76, 3-(2-chlorophenyl)sulfanyl-6-(3-thienyl)-6-[6-[4-(trifluoromethoxy)phenoxy]-2-pyridyl] piperidine-2,4-dione], the IC50 was 0.015 µM. `O=C1CC(c2ccsc2)(c2cccc(Oc3cccc(F)c3)n2)NC(=O)C1Sc1ccccc1Cl` (centres unmarked) [Example 80, 3-(2-chlorophenyl)sulfanyl-6-[6-(3-fluorophenoxy)-2-pyridyl]-6-(3-thienyl) piperidine-2,4-dione] was tested, and the IC50 was 0.056 µM.
